Key:
[1] = target: T1, Human CD73 (amino acid residues 27-549) (Homo sapiens, UniProt P21589); test: CD73 enzymatic assay (luciferase-based indirect assay, CellTiter-Glo); assay type: biochemical; settings: 0.4 nM CD73, 150 μM AMP, 1 hour at room temperature
T1 construct: Human CD73 (amino acid residues 27-549); His tag (N); made in house; host or cells: E. coli
T1 sequence (P21589 27-549): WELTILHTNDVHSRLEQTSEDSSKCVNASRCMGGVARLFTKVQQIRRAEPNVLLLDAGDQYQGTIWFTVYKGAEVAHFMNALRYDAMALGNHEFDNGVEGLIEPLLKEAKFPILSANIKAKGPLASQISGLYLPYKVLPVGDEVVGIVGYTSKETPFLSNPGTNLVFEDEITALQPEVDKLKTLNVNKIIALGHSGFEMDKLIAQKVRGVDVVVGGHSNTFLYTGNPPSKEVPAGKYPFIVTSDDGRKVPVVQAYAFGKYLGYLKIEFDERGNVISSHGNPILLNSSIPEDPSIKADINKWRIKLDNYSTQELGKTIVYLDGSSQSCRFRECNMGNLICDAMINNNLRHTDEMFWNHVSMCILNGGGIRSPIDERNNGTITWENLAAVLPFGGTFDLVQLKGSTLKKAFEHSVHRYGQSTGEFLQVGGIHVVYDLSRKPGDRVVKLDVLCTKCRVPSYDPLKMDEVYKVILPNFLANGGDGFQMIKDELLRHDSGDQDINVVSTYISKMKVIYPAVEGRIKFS
How it was run: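 His-tagged human CD73 (27-549) from E. coli, 0.4 nM, with 150 μM AMP in 50 mM HEPES pH 7.4, 0.01% Tween 20; 1 h at room temperature. AMP remaining read by CellTiter-Glo 2.0 luminescence with 1 μM final ATP after 30 min. IC50 from nonlinear regression of % inhibition.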

human CD73 = target: T2, human CD73 (Homo sapiens, UniProt P21589); test: Inhibitor activity against CD73 in cell based assay (CD73 expressing CHO-K1 cells); settings: CHO-K1 cells expressing human CD73, 150 μM AMP, 4 hours of incubation; read-out: CHO-K1 CELL VARIANT: CD73 IC50
T2 construct: expressed in transfected cells
T2 sequence (P21589 27-549): T1 sequence (P21589 27-549)
How it was run: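 Stably transfected CHO-K1 cells expressing human CD73 (1×10^4/well) incubated 4 h with compound (8-point 1:3 titration, top 10 μM final, 0.2% DMSO) and 150 μM AMP. Residual AMP in supernatant measured by CellTiter-Glo luminescence with 1 μM ATP after 30 min at room temperature; IC50 by nonlinear regression of percent inhibition vs high/low controls.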

IC50 [1] [µM] | IC50 (human CD73) [µM] | SMILES
0.001 to 10 | 0.001 to 10 | COC(=O)[C@H]1CC[C@H](NC(=O)O[C@@H]2CCN(c3cn[nH]c(=O)c3Cl)C2)CC1 [P-0187, methyl (1R,4r)-4-(((((R)-1-(5-chloro-6-oxo-1,6-dihydropyridazin-4-yl)pyrrolidin-3-yl)oxy)carbonyl)amino) cyclohexane-1-carboxylate]
0.001 to 10 | 0.001 to 10 | COC(=O)[C@H]1C[C@H](NC(=O)O[C@@H]2CCN(c3cn[nH]c(=O)c3Cl)C2)C1 [P-0188, methyl (1R,3r)-3-(((((R)-1-(5-chloro-6-oxo-1,6-dihydropyridazin-4-yl)pyrrolidin-3-yl)oxy)carbonyl)amino) cyclobutane-1-carboxylate]
0.001 to 10 | 0.001 to 10 | O=C(Nc1ccc(F)cc1)N[C@H]1CC[C@@H](NC(=O)O[C@@H]2CCN(c3cn[nH]c(=O)c3Cl)C2)CC1 [P-0189, (R)-1-(5-chloro-6-oxo-1,6-dihydropyridazin-4-yl)pyrrolidin-3-yl ((1s,4S)-4-(3-(4-fluorophenyl)ureido)cyclohexyl)carbamate]
0.001 to 10 | 10 to 100 | O=C(N[C@H]1CC[C@H](C(=O)O)CC1)O[C@@H]1CCN(c2cn[nH]c(=O)c2Cl)C1 [P-0190, (1R,4r)-4-(((((R)-1-(5-chloro-6-oxo-1,6-dihydropyridazin-4-yl)pyrrolidin-3-yl)oxy)carbonyl)amino) cyclohexane-1-carboxylic acid]
0.001 to 10 | 0.001 to 10 | CCCNC(=O)[C@H]1CC[C@H](NC(=O)O[C@@H]2CCN(c3cn[nH]c(=O)c3Cl)C2)CC1 [P-0191, (R)-1-(5-chloro-6-oxo-1,6-dihydropyridazin-4-yl)pyrrolidin-3-yl ((1r,4R)-4-(propylcarbamoyl)cyclohexyl) carbamate]
0.001 to 10 | 0.001 to 10 | O=C(N[C@H]1CC[C@H](C(=O)NC2CC2)CC1)O[C@@H]1CCN(c2cn[nH]c(=O)c2Cl)C1 [P-0192, (R)-1-(5-chloro-6-oxo-1,6-dihydropyridazin-4-yl)pyrrolidin-3-yl ((1r,4R)-4-(cyclopropylcarbamoyl)cyclohexyl)carbamate]
0.001 to 10 | 0.001 to 10 | CCN(C)C(=O)[C@H]1CC[C@H](NC(=O)O[C@@H]2CCN(c3cn[nH]c(=O)c3Cl)C2)CC1 [P-0193, (R)-1-(5-chloro-6-oxo-1,6-dihydropyridazin-4-yl)pyrrolidin-3-yl ((1r,4R)-4-(ethyl(methyl)carbamoyl)cyclohexyl)carbamate]
0.001 to 10 | 0.001 to 10 | O=C(N[C@H]1CC[C@H](C(=O)Nc2ccccc2)CC1)O[C@@H]1CCN(c2cn[nH]c(=O)c2Cl)C1 [P-0194, (R)-1-(5-chloro-6-oxo-1,6-dihydropyridazin-4-yl)pyrrolidin-3-yl ((1r,4R)-4-(phenylcarbamoyl)cyclohexyl) carbamate]
0.001 to 10 | 0.001 to 10 | O=C(N[C@H]1CC[C@@H](NC(=O)c2ccc(F)cc2)CC1)O[C@@H]1CCN(c2cn[nH]c(=O)c2Cl)C1 [P-0195, (R)-1-(5-chloro-6-oxo-1,6-dihydropyridazin-4-yl)pyrrolidin-3-yl ((1s,4S)-4-(4-fluorobenzamido)cyclohexyl) carbamate]
0.001 to 10 | 0.001 to 10 | CC(=O)N[C@H]1CC[C@@H](NC(=O)O[C@@H]2CCN(c3cn[nH]c(=O)c3Cl)C2)CC1 [P-0196, (R)-1-(5-chloro-6-oxo-1,6-dihydropyridazin-4-yl)pyrrolidin-3-yl ((1s,4S)-4-acetamidocyclohexyl)carbamate]
0.001 to 10 | 0.001 to 10 | O=C(NC1CCCCC1)N[C@H]1CC[C@@H](NC(=O)O[C@@H]2CCN(c3cn[nH]c(=O)c3Cl)C2)CC1 [P-0197, (R)-1-(5-chloro-6-oxo-1,6-dihydropyridazin-4-yl)pyrrolidin-3-yl ((1s,4S)-4-(3-cyclohexylureido)cyclohexyl) carbamate]
0.001 to 10 | 10 to 100 | O=C(NC1CC2(C1)CN(C(=O)Nc1ccc(F)cc1)C2)O[C@@H]1CCN(c2cn[nH]c(=O)c2Cl)C1 [P-0198, (R)-1-(5-chloro-6-oxo-1,6-dihydropyridazin-4-yl)pyrrolidin-3-yl (2-((4-fluorophenyl)carbamoyl)-2-azaspiro[3.3]heptan-6-yl)carbamate]
0.001 to 10 | 10 to 100 | CCCNC(=O)[C@H]1C[C@H](NC(=O)O[C@@H]2CCN(c3cn[nH]c(=O)c3Cl)C2)C1 [P-0199, (R)-1-(5-chloro-6-oxo-1,6-dihydropyridazin-4-yl)pyrrolidin-3-yl ((1r,3R)-3-(propylcarbamoyl)cyclobutyl) carbamate]
0.001 to 10 | 0.001 to 10 | O=C(N[C@H]1C[C@H](C(=O)Nc2ccccc2)C1)O[C@@H]1CCN(c2cn[nH]c(=O)c2Cl)C1 [P-0200, (R)-1-(5-chloro-6-oxo-1,6-dihydropyridazin-4-yl)pyrrolidin-3-yl ((1r,3R)-3-(phenylcarbamoyl)cyclobutyl) carbamate]
0.001 to 10 | 0.001 to 10 | Cn1ncc(N2CC[C@@H](OC(=O)N[C@H]3CC[C@H](NS(=O)(=O)c4ccccc4F)CC3)C2)c(Cl)c1=O [P-0201, (R)-1-(5-chloro-1-methyl-6-oxo-1,6-dihydropyridazin-4-yl)pyrrolidin-3-yl ((1r,4R)-4-((2-fluorophenyl)sulfonamido)cyclohexyl)carbamate]
0.001 to 10 | 0.001 to 10 | Cn1ncc(N2CC[C@@H](OC(=O)NC3CCC(F)(F)CC3)C2)c(Cl)c1=O [P-0202, (R)-1-(5-chloro-1-methyl-6-oxo-1,6-dihydropyridazin-4-yl)pyrrolidin-3-yl (4,4-difluorocyclohexyl)carbamate]
0.001 to 10 | 0.001 to 10 | CC(C)(C)C1CCC(NC(=O)O[C@@H]2CCN(c3cn[nH]c(=O)c3Cl)C2)CC1 (stereo partly drawn) [P-0203, (R)-1-(5-chloro-6-oxo-1,6-dihydropyridazin-4-yl)pyrrolidin-3-yl (4-(tert-butyl)cyclohexyl)carbamate]
0.001 to 10 | 0.001 to 10 | O=C(NC1CC2CCC1C2)O[C@@H]1CCN(c2cn[nH]c(=O)c2Cl)C1 (stereo partly drawn) [P-0204, (R)-1-(5-chloro-6-oxo-1,6-dihydropyridazin-4-yl)pyrrolidin-3-yl bicyclo[2.2.1]heptan-2-ylcarbamate]
0.001 to 10 | 0.001 to 10 | O=C(NC1CCCCCC1)O[C@@H]1CCN(c2cn[nH]c(=O)c2Cl)C1 [P-0205, (R)-1-(5-chloro-6-oxo-1,6-dihydropyridazin-4-yl)pyrrolidin-3-yl cycloheptylcarbamate]
0.001 to 10 | 0.001 to 10 | O=C(NC1Cc2ccccc2C1)O[C@@H]1CCN(c2cn[nH]c(=O)c2Cl)C1 [P-0206, (R)-1-(5-chloro-6-oxo-1,6-dihydropyridazin-4-yl)pyrrolidin-3-yl (2,3-dihydro-1H-inden-2-yl)carbamate]
0.001 to 10 | 0.001 to 10 | O=C(NC1CCc2[nH]ncc2C1)O[C@@H]1CCN(c2cn[nH]c(=O)c2Cl)C1 (stereo partly drawn) [P-0207, (R)-1-(5-chloro-6-oxo-1,6-dihydropyridazin-4-yl)pyrrolidin-3-yl (4,5,6,7-tetrahydro-1H-indazol-5-yl)carbamate]
0.001 to 10 | 0.001 to 10 | CN1CC(NC(=O)O[C@@H]2CCN(c3cn[nH]c(=O)c3Cl)C2)CC1=O (stereo partly drawn) [P-0208, (R)-1-(5-chloro-6-oxo-1,6-dihydropyridazin-4-yl)pyrrolidin-3-yl (1-methyl-5-oxopyrrolidin-3-yl)carbamate]
0.001 to 10 | 0.001 to 10 | CCCN1CC(NC(=O)O[C@@H]2CCN(c3cn[nH]c(=O)c3Cl)C2)CC1=O (stereo partly drawn) [P-0209, (R)-1-(5-chloro-6-oxo-1,6-dihydropyridazin-4-yl)pyrrolidin-3-yl (5-oxo-1-propylpyrrolidin-3-yl)carbamate]
0.001 to 10 | 0.001 to 10 | Cn1ncc(N2CC[C@@H](OC(=O)N[C@H]3CC[C@@H](C)CC3)C2)c(Cl)c1=O [P-0210, (R)-1-(5-chloro-1-methyl-6-oxo-1,6-dihydropyridazin-4-yl)pyrrolidin-3-yl ((1s,4S)-4-methylcyclohexyl)carbamate]
0.001 to 10 | 0.001 to 10 | Cn1ncc(N2CC[C@@H](OC(=O)N[C@H]3CC[C@@H](NC(=O)c4ccccc4)CC3)C2)c(Cl)c1=O [P-0211, (R)-1-(5-chloro-1-methyl-6-oxo-1,6-dihydropyridazin-4-yl)pyrrolidin-3-yl ((1s,4S)-4-benzamidocyclohexyl) carbamate]
0.001 to 10 | 0.001 to 10 | O=C(NC1CC2(C1)CN(S(=O)(=O)c1ccc(F)cc1)C2)O[C@@H]1CCN(c2cn[nH]c(=O)c2Cl)C1 [P-0212, (R)-1-(5-chloro-6-oxo-1,6-dihydropyridazin-4-yl)pyrrolidin-3-yl (2-((4-fluorophenyl)sulfonyl)-2-azaspiro[3.3]heptan-6-yl)carbamate]

Reference: patent US12509444B2, “Compounds and methods for CD73 modulation and indications therefor” (Plexxikon Inc., priority 2019, dated 2025)
